The values that follow come from patent publication US11470846B2, “Herbicidal pyridino-/pyrimidino-thiazoles” (SYNGENTA PARTICIPATIONS AG, priority 2014, dated 2022).

Common to all, as to type: in vivo
Experiment [1] concerns Alopecurus myosuroides (ALOMY). As to the kind of experiment: Pre-emergence herbicidal activity. The note with it: pre-emergence application, 1000 g/Ha, evaluated after 13 days, scale 0-5. The method, then:
(§1) B1 Pre-Emergence Herbicidal Activity
(§2) Seeds of a variety of test species were sown in standard soil in pots: Triticum aestivium (TRZAW), Oryza sativa (ORYSA), Avena fatua (AVEFA), Alopecurus myosuroides (ALOMY), Echinochloa crus-galli (ECHCG), Lolium perenne (LOLPE), Zea Mays (ZEAMX), Abutilon theophrasti (ABUTH), Amaranthus retroflexus (AMARE) and Setaria faberi (SETFA). After cultivation for one day (pre-emergence) under controlled conditions in a glasshouse (at 24/16° C., day/night; 14 hours light; 65% humidity), the plants were sprayed with an aqueous spray solution derived from the formulation of the technical active ingredient in acetone/water (50:50) solution containing 0.5% Tween 20 (polyoxyethelyene sorbitan monolaurate, CAS RN 9005-64-5). The test plants were then grown in a glasshouse under controlled conditions (at 24/16° C., day/night; 14 hours light; 65% humidity) and watered twice daily. After 13 days, the test was evaluated (5=total damage to plant; 0=no damage to plant).

Experiment [2] concerns Avena fatua (AVEFA). As to the kind of experiment: Pre-emergence herbicidal activity. As to conditions: pre-emergence application, 1000 g/Ha, evaluated after 13 days, scale 0-5. The protocol:
as §1, §2

Experiment [3] concerns Echinochloa crus-galli (ECHCG). As to the kind of experiment: Pre-emergence herbicidal activity. As to conditions: pre-emergence application, 1000 g/Ha, evaluated after 13 days, scale 0-5; Table 5. The protocol:
as §1, §2

Experiment [4] deals with Lolium perenne (LOLPE). As to the kind of experiment: Pre-emergence herbicidal activity. The note with it: pre-emergence application, 1000 g/Ha, evaluated after 13 days, scale 0-5; Table 5. The method, then: as §1, §2
In experiment [5] the test system is Oryza sativa (ORYSA). As to the kind of experiment: Pre-emergence herbicidal activity. The note with it: pre-emergence application, 1000 g/Ha, evaluated after 13 days, scale 0-5. The method, then: as §1, §2
The test system of experiment [6] is Triticum aestivium (TRZAW). As to the kind of experiment: Pre-emergence herbicidal activity. The note with it: pre-emergence application, 1000 g/Ha, evaluated after 13 days, scale 0-5. The protocol:
as §1, §2

In experiment [7] the test system is Alopecurus myosuroides (ALOMY). As to the kind of experiment: Post-emergence herbicidal activity. The note with it: post-emergence application, 1000 g/Ha, evaluated after 13 days, scale 0-5. The protocol: (§3) B2 Post-Emergence Herbicidal Activity
(§4) Seeds of a variety of test species were sown in standard soil in pots: Triticum aestivium (TRZAW), Oryza sativa (ORYSA), Avena fatua (AVEFA), Alopecurus myosuroides (ALOMY), Echinochloa crus-galli (ECHCG), Lolium perenne (LOLPE), Zea Mays (ZEAMX), Abutilon theophrasti (ABUTH), Amaranthus retroflexus (AMARE) and Setaria faberi (SETFA). After 8 days cultivation (post-emergence) under controlled conditions in a glasshouse (at 24/16° C., day/night; 14 hours light; 65% humidity), the plants were sprayed with an aqueous spray solution derived from the formulation of the technical active ingredient in acetone/water (50:50) solution containing 0.5% Tween 20 (polyoxyethelyene sorbitan monolaurate, CAS RN 9005-64-5). The test plants were then grown in a glasshouse under controlled conditions (at 24/16° C., day/night; 14 hours light; 65% humidity) and watered twice daily. After 13 days, the test was evaluated (5=total damage to plant; 0=no damage to plant).

Experiment [8] has as its system Avena fatua (AVEFA). As to the kind of experiment: Post-emergence herbicidal activity. As to conditions: post-emergence application, 1000 g/Ha, evaluated after 13 days, scale 0-5. The protocol: as §3, §4
The test system of experiment [9] is Echinochloa crus-galli (ECHCG). As to the kind of experiment: Post-emergence herbicidal activity. The note with it: post-emergence application, 1000 g/Ha, evaluated after 13 days, scale 0-5; Table 7. The method, then: as §3, §4
Experiment [10] deals with Lolium perenne (LOLPE). As to the kind of experiment: Post-emergence herbicidal activity. The note with it: post-emergence application, 1000 g/Ha, evaluated after 13 days, scale 0-5; Table 7. The method, then:
as §3, §4

Experiment [11] has as its system Oryza sativa (ORYSA). As to the kind of experiment: Post-emergence herbicidal activity. As to conditions: post-emergence application, 1000 g/Ha, evaluated after 13 days, scale 0-5. The protocol:
as §3, §4

Experiment [12] has as its system Triticum aestivium (TRZAW). As to the kind of experiment: Post-emergence herbicidal activity. As to conditions: post-emergence application, 1000 g/Ha, evaluated after 13 days, scale 0-5. The method, then: as §3, §4

`Cc1nc(-c2cncc(N)c2)sc1N(C)C(=O)OC(C)(C)C` [Compound A11]: the “Control of weed species, ALOMY (damage score)” value (shortened to “Control of weed species, ALOMY”) in [1] and in [7] was 1 throughout. In addition, the “Control of weed species, AVEFA (damage score)” value (from here on “Control of weed species, AVEFA”) in the experiment with Avena fatua (AVEFA) [2] and in the experiment with Avena fatua (AVEFA) [8] was 1 throughout. The “Control of weed species, ECHCG (damage score)” value (“Control of weed species, ECHCG” for short) in experiment [3] and in experiment [9] was 2 throughout. Moreover, the “Control of weed species, LOLPE (damage score)” value (“Control of weed species, LOLPE” for short) turned out to be 0 in the experiment with Lolium perenne (LOLPE) [4] and 1 in the experiment on Lolium perenne (LOLPE) [10]. Besides, the “Control of weed species, ORYSA (damage score)” value (“Control of weed species, ORYSA” for short) in the experiment with Oryza sativa (ORYSA) [5] was determined as 2; in the experiment on Oryza sativa (ORYSA) [11], 1. In addition, the “Control of weed species, TRZAW (damage score)” value (“Control of weed species, TRZAW” for short) in [6] and in [12] was 2 each time.
For `Cc1nc(-c2cncc(F)c2)sc1N1CCOC1=O` [Compound A38, 3-[2-(5-fluoro-3-pyridyl)-4-methyl-thiazol-5-yl]oxazolidin-2-one], the “Control of weed species, ALOMY” value in experiment [1] and in experiment [7] was 1 each time. In addition, the entries for the “Control of weed species, AVEFA” value in the experiment on Avena fatua (AVEFA) [2] and in the experiment with Avena fatua (AVEFA) [8] were 1 and 4, respectively. The “Control of weed species, ECHCG” value in experiment [3] and in [9] was 5 in each case. Further, the “Control of weed species, LOLPE” value with Lolium perenne (LOLPE) [4] was determined as 2; in the experiment on Lolium perenne (LOLPE) [10], 3. Moreover, the “Control of weed species, ORYSA” value is reported as 3 with Oryza sativa (ORYSA) [5] and 0 in the experiment with Oryza sativa (ORYSA) [11]. The “Control of weed species, TRZAW” value is recorded as 0 in [6] and 1 in experiment [12].
Turning to `Cc1nc(-c2cccnc2)sc1N(C)C(=O)OC(C)(C)C` [Compound A1, tert-butyl N-methyl-N-[4-methyl-2-(3-pyridyl)thiazol-5-yl]carbamate], the entries for the “Control of weed species, ALOMY” value in experiment [1] and in experiment [7] were 2 and 0, respectively. Also, the “Control of weed species, AVEFA” value in the experiment with Avena fatua (AVEFA) [2] and with Avena fatua (AVEFA) [8] was 4 each time. The “Control of weed species, ECHCG” value in experiment [3] and in [9] was 4 in each case. Also, the results for the “Control of weed species, LOLPE” value in the experiment with Lolium perenne (LOLPE) [4] and in the experiment on Lolium perenne (LOLPE) [10] were 2 and 4, respectively. The “Control of weed species, ORYSA” value in the experiment with Oryza sativa (ORYSA) [5] is recorded as 2; in the experiment with Oryza sativa (ORYSA) [11], 1. The entries for the “Control of weed species, TRZAW” value in [6] and in experiment [12] were 2 and 0, respectively.
For the compound `Cc1nc(-c2cncc(OC(F)F)c2)sc1N(C)C(=O)OC(C)(C)C` [Compound A16, tert-butyl N-[2-[5-(difluoromethoxy)-3-pyridyl]-4-methyl-thiazol-5-yl]-N-methyl-carbamate], the “Control of weed species, ALOMY” value in experiment [1] amounted to 0; in [7], 3. Moreover, the “Control of weed species, AVEFA” value in the experiment on Avena fatua (AVEFA) [2] was determined as 3; in the experiment with Avena fatua (AVEFA) [8] it was 5. In addition, the figures for the “Control of weed species, ECHCG” value in experiment [3] and in experiment [9] were 4 and 5, respectively. Also, the “Control of weed species, LOLPE” value in the experiment with Lolium perenne (LOLPE) [4] and in the experiment on Lolium perenne (LOLPE) [10] was 4 in each case. Also, the “Control of weed species, ORYSA” value in the experiment on Oryza sativa (ORYSA) [5] amounted to 1; with Oryza sativa (ORYSA) [11], 0. Moreover, the “Control of weed species, TRZAW” value came out at 3 in experiment [6] and 4 in experiment [12].
With `Cc1nc(-c2cccnc2)sc1N(C)C(=O)SC(C)(C)C` [Compound A22, S-tert-butyl N-methyl-N-[4-methyl-2-(3-pyridyl)thiazol-5-yl]carbamothioate], the “Control of weed species, ALOMY” value in [1] and in [7] was 0 in each case. Further, the “Control of weed species, AVEFA” value is on record as 0 in the experiment on Avena fatua (AVEFA) [2] and 2 with Avena fatua (AVEFA) [8]. Further, the “Control of weed species, ECHCG” value in experiment [3] was determined as 0; in experiment [9], 2. Further, the figures for the “Control of weed species, LOLPE” value in the experiment with Lolium perenne (LOLPE) [4] and with Lolium perenne (LOLPE) [10] were 0 and 2, respectively. Besides, the “Control of weed species, ORYSA” value in the experiment on Oryza sativa (ORYSA) [5] and in the experiment with Oryza sativa (ORYSA) [11] was 0 in each case. Besides, the “Control of weed species, TRZAW” value in [6] and in experiment [12] was 0 in each case.
For the compound `Cc1nc(-c2cc(F)c[n+]([O-])c2)sc1N(C)C(=O)OC(C)(C)C` [Compound A62, tert-butyl N-[2-(5-fluoro-3-pyridyl N-oxide)-4-methyl-thiazol-5-yl]-N-methyl-carbamate], the “Control of weed species, ALOMY” value in experiment [1] is on record as 2; in [7] it was 1. Further, the “Control of weed species, AVEFA” value came to 2 in the experiment with Avena fatua (AVEFA) [2] and 4 in the experiment on Avena fatua (AVEFA) [8]. Further, the “Control of weed species, ECHCG” value in [3] stood at 3; in experiment [9] it was 4. The “Control of weed species, LOLPE” value with Lolium perenne (LOLPE) [4] is on record as 2; with Lolium perenne (LOLPE) [10], 4. Further, the “Control of weed species, ORYSA” value in the experiment with Oryza sativa (ORYSA) [5] came to 1; with Oryza sativa (ORYSA) [11], 0. For the same compound, the “Control of weed species, TRZAW” value in experiment [6] and in experiment [12] was 1 each time.
`COc1cncc(-c2nc(C(F)(F)F)c(N(C)C(=O)OC(C)(C)C)s2)c1` [Compound A28, tert-butyl N-[2-(5-methoxy-3-pyridyl)-4-(trifluoromethyl)thiazol-5-yl]-N-methyl-carbamate]: the “Control of weed species, ALOMY” value is 0 in experiment [1] and 1 in experiment [7]. Moreover, the “Control of weed species, AVEFA” value in the experiment on Avena fatua (AVEFA) [2] turned out to be 1; in the experiment on Avena fatua (AVEFA) [8] it was 2. Further, the “Control of weed species, ECHCG” value stood at 3 in experiment [3] and 4 in experiment [9]. Also, the entries for the “Control of weed species, LOLPE” value in the experiment on Lolium perenne (LOLPE) [4] and with Lolium perenne (LOLPE) [10] were 2 and 3, respectively. The “Control of weed species, ORYSA” value in the experiment with Oryza sativa (ORYSA) [5] turned out to be 0; with Oryza sativa (ORYSA) [11], 1. In addition, the “Control of weed species, TRZAW” value in experiment [6] amounted to 0; in experiment [12], 1.
With `Cc1nc(-c2cncc(C=O)c2)sc1N(C)C(=O)OC(C)(C)C` [Compound A5], the “Control of weed species, ALOMY” value in experiment [1] and in experiment [7] was 0 throughout. Besides, the “Control of weed species, AVEFA” value in the experiment on Avena fatua (AVEFA) [2] and in the experiment with Avena fatua (AVEFA) [8] was 0 throughout. In addition, the “Control of weed species, ECHCG” value in [3] and in experiment [9] was 0 throughout. Moreover, the “Control of weed species, LOLPE” value with Lolium perenne (LOLPE) [4] and with Lolium perenne (LOLPE) [10] was 0 each time. Moreover, the “Control of weed species, ORYSA” value in the experiment on Oryza sativa (ORYSA) [5] and in the experiment on Oryza sativa (ORYSA) [11] was 0 each time. For the same compound, the “Control of weed species, TRZAW” value in experiment [6] and in experiment [12] was 0 in each case.
As for `Cc1nc(-c2cncc(C#N)c2)sc1N(C)C(=O)OC(C)(C)C` [Compound A7], the “Control of weed species, ALOMY” value in experiment [1] and in experiment [7] was 1 throughout. The “Control of weed species, AVEFA” value with Avena fatua (AVEFA) [2] and in the experiment with Avena fatua (AVEFA) [8] was 4 each time. The “Control of weed species, ECHCG” value is listed as 2 in experiment [3] and 5 in experiment [9]. Further, the “Control of weed species, LOLPE” value with Lolium perenne (LOLPE) [4] came out at 2; with Lolium perenne (LOLPE) [10], 3. Besides, the “Control of weed species, ORYSA” value in the experiment on Oryza sativa (ORYSA) [5] and in the experiment on Oryza sativa (ORYSA) [11] was 1 each time. In addition, the figures for the “Control of weed species, TRZAW” value in [6] and in [12] were 1 and 2, respectively.
